Assay results reported in article PMC7366829 (Acta biomaterialia, 2020).

Assays:
MelBSt = MelBSt (Salmonella enterica, UniProt P30878); assay: Trp to D2G FRET; type: binding; conditions: 10 μM D2G; 23 °C; DDM or GNG-3,14 extract; active site
MelBEc = MelBEc (Escherichia coli, UniProt P02921); assay: Trp to D2G FRET; type: binding; conditions: 10 μM D2G; 23 °C; GNG-3,14 extract; active site
β2AR = β2AR (Homo sapiens, UniProt P07550); assay: radioligand binding, G-50 column; conditions: 10 nM [3H]-DHA; pH 7.5; 100 mM NaCl; room temperature; antagonist; labelled compound
Chain of β2AR (P07550 whole entry): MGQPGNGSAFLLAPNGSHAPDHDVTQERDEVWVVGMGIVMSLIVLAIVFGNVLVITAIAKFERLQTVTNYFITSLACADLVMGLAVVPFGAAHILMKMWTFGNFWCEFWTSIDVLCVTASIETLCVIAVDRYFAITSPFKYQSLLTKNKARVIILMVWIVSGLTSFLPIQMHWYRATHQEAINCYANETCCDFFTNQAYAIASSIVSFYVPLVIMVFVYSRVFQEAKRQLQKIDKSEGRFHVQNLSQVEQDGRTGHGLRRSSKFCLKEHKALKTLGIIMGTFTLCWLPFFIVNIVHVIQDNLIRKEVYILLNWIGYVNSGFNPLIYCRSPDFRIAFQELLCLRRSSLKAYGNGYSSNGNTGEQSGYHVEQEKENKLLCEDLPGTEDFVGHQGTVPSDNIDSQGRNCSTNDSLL

Chain of MelBSt (P30878 whole entry): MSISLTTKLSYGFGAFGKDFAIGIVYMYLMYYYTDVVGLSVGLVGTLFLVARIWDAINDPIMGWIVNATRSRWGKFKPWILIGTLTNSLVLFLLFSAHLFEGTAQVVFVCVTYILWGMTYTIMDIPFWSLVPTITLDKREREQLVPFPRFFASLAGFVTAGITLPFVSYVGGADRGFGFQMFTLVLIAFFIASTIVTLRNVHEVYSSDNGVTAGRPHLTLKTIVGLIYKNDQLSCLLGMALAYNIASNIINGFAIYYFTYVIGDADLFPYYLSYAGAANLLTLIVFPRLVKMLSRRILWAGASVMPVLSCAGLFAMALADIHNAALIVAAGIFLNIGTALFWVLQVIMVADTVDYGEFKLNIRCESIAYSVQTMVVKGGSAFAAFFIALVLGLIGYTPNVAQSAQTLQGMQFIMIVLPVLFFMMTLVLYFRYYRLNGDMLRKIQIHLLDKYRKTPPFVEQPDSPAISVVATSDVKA
Chain of MelBEc (P02921 2-473): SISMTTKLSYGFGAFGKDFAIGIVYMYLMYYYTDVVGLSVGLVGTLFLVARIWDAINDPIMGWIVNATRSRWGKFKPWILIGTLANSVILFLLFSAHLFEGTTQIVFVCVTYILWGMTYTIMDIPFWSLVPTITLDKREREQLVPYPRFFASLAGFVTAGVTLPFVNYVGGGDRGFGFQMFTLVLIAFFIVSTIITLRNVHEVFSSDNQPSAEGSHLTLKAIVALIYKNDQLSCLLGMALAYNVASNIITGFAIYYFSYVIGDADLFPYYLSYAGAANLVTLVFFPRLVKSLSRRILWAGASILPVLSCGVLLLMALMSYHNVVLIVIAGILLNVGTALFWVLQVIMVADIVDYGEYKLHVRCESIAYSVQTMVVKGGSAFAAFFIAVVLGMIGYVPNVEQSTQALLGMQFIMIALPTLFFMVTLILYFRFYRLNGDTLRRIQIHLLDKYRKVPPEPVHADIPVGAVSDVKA

Compound | Trp to D2G FRET (MelBSt) | Trp to D2G FRET (MelBEc) | radioligand binding, G-50 column (β2AR)
CN(C)c1cccc2c(S(=O)(=O)NCCS[C@@H]3O[C@H](CO)[C@H](O)[C@H](O)[C@H]3O)cccc12 [D2G, 2’-(N-Dansyl)aminoalkyl-1-thio-β-D-galactopyranoside] | DDM or GNG-3,14-extracted MelBSt responded to addition of D^2G and melibiose | GNG-3,14-extracted MelBEc was functional under the same conditions | –
CCCc1ccccc1OCC(O)CNC(C)C (stereo not drawn) [[3H]-dihydroalprenolol] | – | – | ligand binding assay using a radio-active antagonist ([^3H]-DHA)
